According to patent US6667306B1, “Platelet ADP receptor inhibitors” (Millennium Pharmaceuticals, Inc., priority 1998, dated 2003):
Where two headings read alike, the source gives them in different places.

How the values were obtained:
[1] = biological target: T1, human P2Y1 receptor (hP2Y1) (Homo sapiens, UniProt P47900); experiment: hP2Y1 receptor activity assay (2-MeS-ADP-induced intracellular calcium mobilization in hP2Y1-JA7 Jurkat cells); assay type: cell-based; conditions: 10^-7 M 2-MeS-ADP, read-out: IC50 on 2-MeS-ADP-mediated intracellular calcium mobilization
T1 construct: a genomic fragment encompassing the entire open reading frame of the human P2Y1 receptor; expressed in transfected cells; host or cells: Jurkat cells, clonal line hP2Y1-JA7, vector pcINeo
Method: Therefore, hP2Y1 receptor activity of test compounds was assessed by measuring agonist-induced intracellular calcium mobilization in a mammalian cell line expressing the cloned receptor gene.
For intracellular calcium measurements, cells were collected by centrifugation, washed and resuspended in Hepes-Tyrodes buffer/0.1% BSA/1 mM CaCl2 at 10^7 cells/ml at 37° C. Fura-2AM (Molecular Probes, Eugene, Oreg.) was added to 4 μM in the presence of 0.008% Pluronic F-27 (Molecular Probes, Eugene, Oreg.) and incubation continued for 30 minutes at 37° C. in the dark with gentle agitation. Cells were collected by centrifugation and incubated for 15 minutes at 37° C. in buffer with 1 U apyrase/ml. Cells were then centrifuged and resuspended at 4° C. and 2×10^6 cells/ml. […] Calcium responses were determined for the agonist 2-MeS-ADP (2-methylthioadenosine diphosphate, trisodium salt, RBI, Natick, Ma.) at the submaximal concentration of 10^−7M in the absence and presence of various concentrations of test compounds. Maximum ratios were determined after lysis of cells with 100 μM digitonin, minimum ratios after addition of 20 mM iris and 10 mM EGTA. […] Increases in intracellular calcium levels were determined by subtraction of baseline levels from peak calcium levels.

[2] = system: ADP-induced human platelet aggregation; experiment: Inhibition of ADP-mediated platelet aggregation in vitro (96-well microtiter assay, washed platelets); assay type: cell-based; conditions: for IC50: Platelet
Method: The effect of test Compounds 1-8 of, respectively, Examples 1-8 on ADP-induced human platelet aggregation was assessed in 96-well microtiter assay. Human venous blood was collected from healthy, drug-free volunteers into ACD (85 mM sodium citrate, 111 mM glucose, […] citric acid) containing PGI2 (1.25 ml ACD containing 1.6 μM PGI2/10 ml blood; PGI2 was from Sigma, St. Louis, Mo.). Platelet-rich plasma (PRP) was prepared by centrifugation at 160×g for 20 minutes at room temperature. Washed platelets were prepared by centrifuging PRP for 10 minutes at 730×g and resuspending the platelet pellet in CGS (13 mM sodium citrate, 30 mM glucose, 120 mM NaCl; 2 ml CGS/10 ml original blood volume) containing 1 U/ml apyrase (grade V, Sigma, St. Louis, Mo.). After incubation at 37° C. for 15 minutes, the platelets were collected by centrifugation at 730×g for 10 minutes and resuspended at a concentration of 3×10^8 platelets/ml in Hepes-Tyrode's buffer (10 mM Hepes; 138 mM NaCl, 5.5 mM glucose, 2.9 mM KCl, 12 mM NaHCO3, pH 7.4) containing 0.1% bovine serum albumin, 1 mM CaCl2 and 1 mM MgCl2. This platelet suspension was kept >45 minutes at 37° C. before use in aggregation assays.
Inhibition of ADP-dependent aggregation was determined in 96-well flat-bottom microtiter plates using a microtiter plate shaker and plate reader similar to the procedure described by Frantantoni et al., Am. J. Clin. Pathol. 94, 613 (1990). All steps were performed at room temperature. The total reaction volume of 0.2 ml/well included in Hepes-Tyrodes buffer/0.1% BSA: 4.5×10^7 apyrase-washed platelets, 0.5 mg/ml human fibrinogen (American Diagnostica, Inc., Greenwich, Conn.), serial dilutions of test compounds (buffer for control wells) in 0.6% DMSO. After about 5 minutes preincubation at room temperature, ADP was added to a final concentration of 2 μM which induces submaximal aggregation. Buffer was added instead of ADP to one set of control wells (ADP^−control). The OD of the samples was then determined at 490 nm using a microtiter plate reader (Softmax, Molecular Devices, Menlo Park, Calif.) resulting in the 0 minute reading. The plates were then agitated for 5 min on a microtiter plate shaker and the 5 minute reading obtained in the plate reader. Aggregation was calculated from the decrease of OD at 490 nm at t=5 minutes compared to t=0 minutes and expressed as % of the decrease in the ADP control samples corrected for changes in the unaggregated control samples.
In some experiments, 0.3 mM 8-sulphophenyltheophylline (8-SPT, Sigma, St. Louis, Mo.) was added to the reaction to block any potential adenosine receptor activity of test compounds.

platelet ADP receptors = platelet ADP receptors (Homo sapiens, UniProt Q9H244); experiment: Inhibition of [^3H]2-MeS-ADP binding to platelets
Method: All steps were performed at room temperature unless indicated otherwise.

[3] = washed human platelets, 2 μM ADP, mean of 3-12 independent experiments in duplicate, read-out: IC50 Aggregation (inhibition of ADP-dependent platelet aggregation)
[4] = Homo sapiens, units given with the value (nM to μM), read-out: IC50s of ADP-dependent aggregation of human platelets, span over the series
[5] = outdated human platelets, 1 nM [^3H]2-MeS-ADP, mean of 2-8 independent experiments in duplicate

Chain of platelet ADP receptors (Q9H244 whole entry): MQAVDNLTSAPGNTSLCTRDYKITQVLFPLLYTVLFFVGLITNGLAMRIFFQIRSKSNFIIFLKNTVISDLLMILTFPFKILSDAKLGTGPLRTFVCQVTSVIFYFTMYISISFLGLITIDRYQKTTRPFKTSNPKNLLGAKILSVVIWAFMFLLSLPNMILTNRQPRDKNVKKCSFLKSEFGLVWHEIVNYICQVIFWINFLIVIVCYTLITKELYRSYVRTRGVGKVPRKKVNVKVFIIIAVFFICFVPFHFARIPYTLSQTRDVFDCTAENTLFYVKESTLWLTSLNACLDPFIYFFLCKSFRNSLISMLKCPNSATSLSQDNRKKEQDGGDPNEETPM
T1 sequence (P47900 whole entry, the tested form may be a part): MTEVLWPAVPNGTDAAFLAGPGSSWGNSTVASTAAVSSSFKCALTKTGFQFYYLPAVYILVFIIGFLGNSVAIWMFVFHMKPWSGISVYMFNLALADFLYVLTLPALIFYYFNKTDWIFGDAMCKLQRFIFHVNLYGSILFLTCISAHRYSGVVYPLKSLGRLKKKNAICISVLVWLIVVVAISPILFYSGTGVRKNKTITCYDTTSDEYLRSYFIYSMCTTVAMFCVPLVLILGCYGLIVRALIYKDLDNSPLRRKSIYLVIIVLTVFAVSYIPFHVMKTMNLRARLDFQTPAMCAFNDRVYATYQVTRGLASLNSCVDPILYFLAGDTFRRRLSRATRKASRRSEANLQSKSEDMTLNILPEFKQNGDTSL

For `CCOc1ccc2c(c1)SC1=NS(=O)(=O)C(C(=O)CS(=O)(=O)Nc3nc4ccc(OCC)cc4s3)=C(O)N12` [Compound 1, N^1-(6-Ethoxy-1,3-benzothiazol-2-yl)-2-(8-ethoxy-4-hydroxy-2,2-dioxo-2H-2l^6-benzo[4,5][1,3]thiazolo[2,3-c][1,2,4]thiadiazin-3-yl)-2-oxo-1-ethanesulfonamide], the IC50 [1] was greater than 100 µM, the “potency on ADP-dependent aggregation in the presence of 8-sulphophenyltheophylline” value ([2]; 0.3 mM 8-SPT (adenosine receptor antagonist) added) was “not reduced” and the IC50 ([2]; Homo sapiens, read-out: IC50s of ADP-dependent aggregation of human platelets, span over the series) was no less than 180 nM. It also gave an IC50 [2, 3] of 180 nM and an IC50 (platelet ADP receptors) of 170 nM.

`O=C(CS(=O)(=O)Nc1nc2ccccc2s1)C1=C(O)N2C(=NS1(=O)=O)Sc1ccccc12` [Compound 2, N^1-(1,3-benzothiazol-2-yl)-2-(4-hydroxy-2,2-dioxo-2H-2l^6-benzo[4,5][1,3]thiazolo[2,3-c][1,2,4]thiadiazin-3-yl)-2-oxo-1-ethanesulfonamide] gave an IC50 [2, 4] of no less than 180 nM and an IC50 [2, 3] of 26000 nM.

`Cc1ccc2c(c1)SC1=NS(=O)(=O)C(C(=O)CS(=O)(=O)Nc3nc4ccc(C)cc4s3)=C(O)N12` [Compound 3, N^1-(6-Methyl-13-benzothiazol-2-yl)-2-(8-methyl-4-hydroxy-2,2-dioxo-2H-2l^6-benzo[4,5][1,3]thiazolo[2,3-c][1,2,4]thiadiazin-3-yl)-2-oxo-1-ethanesulfonamide] gave an IC50 [2, 4] of no less than 180 nM, an IC50 [2, 3] of 9500 nM and an IC50 (platelet ADP receptors; [5]) of 22000 nM.

With `O=C(CS(=O)(=O)Nc1nc2ccc(Cl)cc2s1)C1=C(O)N2C(=NS1(=O)=O)Sc1cc(Cl)ccc12` [Compound 4, N^1-(6-Chloro-1,3-benzothiazol-2-yl)-2-(8-chloro-4-hydroxy-2,2-dioxo-2H-2l^6-benzo[4,5][1,3]thiazolo[2,3-c][1,2,4]thiadiazin-3-yl)-2-oxo-1-ethanesulfonamide] the IC50 [2, 4] was no less than 180 nM and the IC50 [2, 3] was 64000 nM.

Compound `CS(=O)(=O)c1ccc2c(c1)SC1=NS(=O)(=O)C(C(=O)CS(=O)(=O)Nc3nc4ccc(S(C)(=O)=O)cc4s3)=C(O)N12` [Compound 5, N^1-(6-Methylsulfonyl-1,3-benzothiazol-2-yl)-2-(8-methylsulfonyl-4-hydroxy-2,2-dioxo-2H-2l^6-benzo[4,5][1,3]thiazolo[2,3-c][1,2,4]thiadiazin-3-yl)-2-oxo-1-ethanesulfonamide] has an IC50 [2, 4] of no less than 180 nM and an IC50 [2, 3] of 700 nM.

With `O=C(CS(=O)(=O)Nc1nc2ccc([N+](=O)[O-])cc2s1)C1=C(O)N2C(=NS1(=O)=O)Sc1cc([N+](=O)[O-])ccc12` [Compound 6, N^1-(6-Nitro-1,3-benzothiazol-2-yl)-2-(8-nitro-4-hydroxy-2,2-dioxo2H-2l^6-benzo[4,5][1,3]thiazolo[2,3-c][1,2,4]thiadiazin-3-yl)-2-oxo-1-ethanesulfonamide] the IC50 [2, 4] was no less than 180 nM and the IC50 [2, 3] was 50000 nM.

For `O=C(CS(=O)(=O)Nc1nc2ccc(F)cc2s1)C1=C(O)N2C(=NS1(=O)=O)Sc1cc(F)ccc12` [Compound 7, N^1-(6-Fluoro-1,3-benzothiazol-2-yl)-2-(8-fluoro-4-hydroxy-2,2-dioxo-2H-2l^6-benzo[4,5][1,3]thiazolo[2,3-c][1,2,4]thiadiazin-3-yl)-2-oxo-1-ethanesulfonamide], the IC50 [2, 4] was no less than 180 nM and the IC50 [2, 3] was greater than 120000 nM.

Work on `COc1ccc2c(c1)SC1=NS(=O)(=O)C(C(=O)CS(=O)(=O)Nc3nc4ccc(OC)cc4s3)=C(O)N12` [Compound 8, N^1-(6-Methoxy-1,3-benzothiazol-2-yl)-2-(8-methoxy-4-hydroxy-2,2-dioxo-2H-2l^6-benzo[4,5][1,3]thiazolo[2,3-c][1,2,4]thiadiazin-3-yl)-2-oxo-1-ethanesulfonamide] yielded an IC50 [2, 4] of no less than 180 nM, an IC50 [2, 3] of 1500 nM and an IC50 (platelet ADP receptors; [5]) of 800 nM.
